Test results as given in publication PMC8069832, “New Amides and Phosphoramidates Containing Selenium: Studies on Their Cytotoxicity and Antioxidant Activities in Breast Cancer” (Antioxidants, 2021).
Read-outs that look alike come from different tables or passages of the source.

Columns and labels:
MCF-7 [1] = assay: Cell death (subdiploid cells), Apo-Direct kit TUNEL flow cytometry; type: cell-based, human; conditions: 24 h, increasing doses (I.1f 10 to 80 µM)
Protocol: For the MCF-7 cell line, both cell cycle analysis and the cell death percentage were determined using the Apo-Direct kit (BD Pharmingen) based on the TUNEL technique, according to the manufacturer’s instructions. Cells were seeded in 25 cm^2 flasks (3 × 10^6 for 24 h of treatment, 2 × 10^6 for 48 h and 10^6 for 72 h) treated with DMSO (negative control), 6 µM of camptothecin (positive control) and different concentrations of I.1f, I.2f and II.2d.
After treatment, cells were collected and fixed with 1% paraformaldehyde (Sigma) in PBS (pH = 7.4), incubated in ice for 40 min, collected by centrifugation, washed with PBS and incubated with 70% ethanol for 30 min at −20 °C. After fixation, cells were washed twice with PBS and incubated for 1 h at 37 °C with FITC dUTP-DNA Labeling Solution. Cells were then rinsed and incubated in the dark for 30 min at room temperature with PI/RNase staining buffer before being analyzed by flow cytometry (Coulter Epics XL, Beckman Coulter Flow cytometer). Then, cells were treated with compounds I.1f (80 µM), I.2f (30 µM) and II.2d (5 µM) at different times (from 8 to 72 h) following the same methodology.
Apoptosis and cell cycle arrest are typical mechanisms of action for many anticancer drugs, including selenocompounds [34, 35, 36]. In a first approach, the effect of the selected compounds on cell cycle progression and the induction of apoptosis was studied in MCF-7 cell cultures. Analyses were performed by flow cytometry using the Apo-Direct kit, based on the TUNEL technique under the conditions described by the manufacturer. The cells were treated with the corresponding compound at different concentrations and time points. Camptothecin was used as a positive control at 6 µM.

HT-29 = assay: cells; conditions: Homo sapiens, HT-29, 48 h; for activity at 10 µM: read-out: Cell growth (%) HT-29; for GI50: read-out: GI50 HT-29; for CC50: read-out: LC50 HT-29; for IC (TGI): read-out: TGI HT-29
PC-3 = assay: cells; type: cell-based; conditions: Homo sapiens; for LC50: read-out: LC50 PC-3; for GI50: read-out: GI50 PC-3; for IC (TGI): read-out: TGI PC-3
In short: (§1)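 MTT cytotoxicity: 1 × 10^4 cells/well in RPMI + 10% FBS exposed to increasing compound concentrations for 48 h at 37 °C, 5% CO2, then MTT for 4 h and formazan dissolved in DMSO. Initial screen at 50 and 10 µM; at least 3 independent experiments in quadruplicate, SEM reported.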

HTB-54 = assay: cells; type: cell-based; conditions: Homo sapiens; for CC50: read-out: LC50 HTB54; for GI50: read-out: GI50 HTB54; for IC (TGI): read-out: TGI HTB54
In short: as §1

[2] = DPPH radical scavenging assay; conditions: 0.03 mg/mL, after 30 min
Protocol: The DPPH (1,1-diphenyl-2-picrylhydrazyl radical) assay measures the hydrogen donation ability of the antioxidant to convert the stable DPPH free radical into 1,1-diphenyl-2-(2,4,6-trinitrophenyl)-hydrazine. After radical reaction with the compounds, a decrease in the absorbance was detected at 517 nm, which is accompanied by a change of color from violet to light-yellow. The target compounds were dissolved in methanol to make 1 mg/mL stock solutions, which were diluted to five concentrations as test samples. Ascorbic acid was used as a standard, and the experiment was carried out on 96-well plates. The DPPH solution was prepared at a 100 µM concentration. For each test, 100 µL of DPPH solution was added to 100 µL of methanolic solution containing the tested derivatives, and the absorbance was determined at different time points. All the measurements were carried out in triplicate. Results were expressed as the percentage of the radical scavenged, calculated using the following formula:(1) % DPPH radical scavenging=Acontrol − Asample/Acontrol × 100 where Acontrol refers to the absorbance of the negative control, and Asample refers to the absorbance of the tested compounds. Results are expressed as a percentage of DPPH radical scavenged ± SEM.
. Ascorbic acid and Trolox were used as radical scavenger gold standards. […]. No correlation was found for either structure–radical scavenging activity or antitumor–radical scavenging activity, except for compound I.2f, one of the selected cytotoxic agents. To further confirm this antioxidant activity, three compounds (I.1e, I.1g and I.2i) were also evaluated as DPPH radical scavengers at a lower concentration of 0.003 mg/mL (Figure 3B).

MCF-7 [3] = conditions: read-out: GI50 MCF-7; 48 h, average ± SEM

| Structure (SMILES) | Cell death (subdiploid cells) (MCF-7 [1]) | activity at 10 µM (HT-29) [%] | GI50 (HT-29) [µM] | CC50 (HT-29) [µM] | IC (TGI) (HT-29) [µM] | LC50 (PC-3; PC-3, 48 h) [µM] | GI50 (PC-3; PC-3, 48 h, average ± SEM) [µM] | IC (TGI) (PC-3; PC-3, 48 h, average ± SEM) [µM] | CC50 (HTB-54; HTB-54, 48 h) [µM] | GI50 (HTB-54; HTB-54, 48 h, average ± SEM) [µM] | IC (TGI) (HTB-54; HTB-54, 48 h, average ± SEM) [µM] | DPPH activity inhibition [2] | GI50 (MCF-7 [3]) [µM] | LC50 (PC-3; PC-3, 48 h, average ± SEM) [µM] | CC50 (HTB-54; HTB-54, 48 h, average ± SEM) [µM] | GI50 (PC-3; PC-3, 48 h) [µM] | IC (TGI) (PC-3; PC-3, 48 h) [µM] | GI50 (HTB-54; HTB-54, 48 h) [µM] | IC (TGI) (HTB-54; HTB-54, 48 h) [µM] |
| --- | --- | --- | --- | --- | --- | --- | --- | --- | --- | --- | --- | --- | --- | --- | --- | --- | --- | --- | --- |
| O=C(Nc1ccc([Se][Se]c2ccc(NC(=O)c3ccc(C(F)(F)F)cc3)cc2)cc1)c1ccc(C(F)(F)F)cc1 [I.1f] | did not stimulate cell death | -18.4 | 0.1 | > 100 | 5.7 ± 0.9 | 65 ± 0.6 | 1.2 ± 1.5 | 32.9 ± 3.1 | 75.4 ± 1.7 | 25.1 ± 3.1 | 50.2 ± 2.4 |  |  |  |  |  |  |  |  |
| N#C[Se]c1ccc(NC(=O)c2ccc(C(F)(F)F)cc2)cc1 [I.2f] | provoked a significant increase in the number of death cells | 26.7 | 0.6 ± 0.4 | > 100 | 79.2 ± 0.3 |  | 28.5 ± 0.7 | 53.1 ± 0.6 |  | 29.8 ± 1.5 | 57.1 ± 3.3 | greater than 35% | 0.9 | 77.7 ± 0.6 | 84.4 ± 5.2 |  |  |  |  |
| CCOP(=O)(Nc1ccc([Se]C#N)cc1)OCC [II.2d] | provoked a significant increase in the number of death cells | -63.4 | 5 ± 0.8 | 9.5 ± 0.4 | 7.3 ± 0.2 | 99.9 ± 9.5 |  |  | 4.8 ± 0.2 |  |  |  | 0.9 ± 0.1 |  |  | 1.9 ± 0.1 | 4.4 ± 0.1 | 1.6 ± 0.4 | 3.2 ± 0.3 |
